Laboratory results reported in patent EP2210885A1, “Substituted heteroarylpiperidine derivatives as melanocortin-4 receptor modulators” (Santhera Pharmaceuticals (Schweiz) AG, priority 2009, dated 2010).

Key:
hMC-4R [1] = biological target: T1, hMC-4R (Homo sapiens, UniProt P32245); assay: hMC-4R functional assay (membrane based cAMP fluorescence polarization, agonistic activity); assay type: biochemical; details: cAMP produced compared to stimulation with NDP-alpha-MSH
T1 construct: expressed in transfected cells; host or cells: HEK293 cell membrane preparations
Description: Agonistic activity of human melanocortin receptors is determined in a homogeneous membrane based assay.
The test compound or unlabeled NDP-alpha-MSH is dispensed at varying concentrations to a 384 well microtiter plate. Membrane preparations from HEK293 cells expressing the human melanocortin receptors are added. After a short preincubation period, an appropriate amount of ATP, GTP and the cAMP antibody is added and the plate is further incubated before the fluorescence labeled cAMP conjugate is dispensed. The plate is incubated for 2 h at 4°C before it is read on a fluorescence polarization microplate reader. The amount of cAMP produced as a response to a test compound is compared to the production of cAMP resulting from stimulation with NDP-alpha-MSH.

hMC-4R [2] = biological target: T1, hMC-4R; assay: hMC-4R membrane binding assay (fluorescence polarization, competition with fluorescence labeled NDP-alpha-MSH); details: HEK293 cell membrane preparations expressing human melanocortin receptors; values grouped in classes
Description: A membrane binding assay is used to identify competitive inhibitors of fluorescence labeled NDP-alpha-MSH binding to HEK293 cell membrane preparations expressing human melanocortin receptors.
The test compound or unlabeled NDP-alpha-MSH is dispensed at varying concentrations to a 384 well microtiter plate. Fluorescence labeled NDP-alpha-MSH is dispensed at a single concentration, followed by addition of membrane preparations. The plate is incubated for 5 h at room temperature.
The degree of fluorescence polarization is determined with a fluorescence polarization microplate reader.

T1 sequence (P32245 whole entry): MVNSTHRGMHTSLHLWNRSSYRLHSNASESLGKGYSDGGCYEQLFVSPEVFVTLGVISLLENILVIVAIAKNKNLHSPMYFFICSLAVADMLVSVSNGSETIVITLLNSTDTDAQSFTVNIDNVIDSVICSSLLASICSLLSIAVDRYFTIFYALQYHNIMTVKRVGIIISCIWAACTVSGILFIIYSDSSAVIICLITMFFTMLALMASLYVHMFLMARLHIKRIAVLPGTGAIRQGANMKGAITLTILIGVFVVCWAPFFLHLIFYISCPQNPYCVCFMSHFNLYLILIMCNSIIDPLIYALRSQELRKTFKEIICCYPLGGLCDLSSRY

Structure (SMILES) | % activation functional assay (hMC-4R [1]) [%] | IC50 (hMC-4R [2]) [µM]
CCC(COc1cccnc1C1CCN(C(=O)C(Cc2ccc(Cl)cc2Cl)NC(=O)OC(C)C)CC1)N(C)C (stereo not drawn) [Example 2] | 4 | ≤ 0.1
CC[C@H](COc1cccnc1C1CCN(C(=O)[C@@H](Cc2ccc(Cl)cc2Cl)NC(=O)OC2CCCC2)CC1)N(C)C [Example 3] | 0 | 0.1 to 1
CCOC(=O)N[C@H](Cc1ccc(Cl)cc1Cl)C(=O)N1CCC(c2ncccc2OC[C@@H](CC)N(C)C)CC1 [Example 1] | -6 | ≤ 0.1
